# Laboratory results from patent publication US20060069132A1, “Azolecarboxamide herbicides” (priority 2004, published 2006).
# Legend:
# wild oat = experiment: Test B postemergence herbicide test; type: in vivo, Avena fatua; conditions: postemergence, visual rating, scale 0 (no effect) to 100 (complete control)
# Method in brief: (§1)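 Formulated test chemicals went onto postemergence plants measuring 2 to 18 cm, at one to four leaves. For the paddy assay, species had reached two leaves. Scoring took place 13–15 days later by eye, relative to untreated plants, using 0 for no effect up to 100 for full control.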
# barnyardgrass [1] = experiment: Test C flooded paddy test; type: in vivo, Echinochloa crus-galli
# Method in brief: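 Greenhouse test with a 12–14 day hold after application and visual comparison with controls. Emerged plants were 1- to 4-leaf stage (2–18 cm) when sprayed postemergence, and the paddy barnyardgrass was at 2 leaves under flooded conditions. 100 = complete control.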
# morningglory = experiment: Test B pre-/postemergence herbicide test; type: in vivo, Ipomoea coccinea; conditions: for Morningglory plant response rating: postemergence, scale 0 (no effect) to 100 (complete control)
# Method in brief: (§2)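 Response was scored visually 13 to 15 days after treatment against untreated greenhouse controls, 0 meaning no effect and 100 complete control. Formulations (solvent mixture plus surfactant) went onto soil after planting, onto foliage of 1- to 4-leaf plants, and onto 2-leaf plants in a flooded paddy set including rice and barnyardgrass.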
# velvetleaf = experiment: Test B pre-/postemergence herbicide test; type: in vivo, Abutilon theophrasti; conditions: for Velvetleaf plant response rating: postemergence, scale 0 (no effect) to 100 (complete control)
# Method in brief: (§3)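 Flooded paddy rice and barnyardgrass were treated at the 2-leaf stage; upland plantings received compound either on sown seed or on 1- to 4-leaf seedlings. All were kept 13–15 days in a greenhouse and scored visually, 0–100, relative to untreated plants.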
# wheat = experiment: Test B postemergence herbicide test; type: in vivo, Triticum aestivum; parameters: key to Wheat plant response rating: 0 = no effect, 100 = complete control; conditions: postemergence, visual rating, scale 0 (no effect) to 100 (complete control)
# Method in brief: as §1
# rice [2] = experiment: Test B pre-/postemergence herbicide test; type: in vivo, Oryza sativa; conditions: 0 = no effect, 100 = complete control, preemergence
# Method in brief: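 Evaluation is visual, comparing treated with control plants on a scale where 0 means no effect and 100 means full control. Treatments were preemergence, or postemergence on seedlings 2–18 cm tall, and held 13–15 days in the greenhouse.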
# ducksalad [3] = experiment: Test C flooded paddy test; type: in vivo, Heteranthera limosa
# barnyardgrass [4] = experiment: Test B pre-/postemergence herbicide test; type: in vivo, Echinochloa crus-galli; conditions: 0 = no effect, 100 = complete control, preemergence
# Method in brief: as §2
# pigweed = experiment: Test B pre-/postemergence herbicide test; type: in vivo, Amaranthus retroflexus
# Method in brief: as §3
# ducksalad [5] = experiment: Test B flooded paddy test; type: in vivo, Heteranthera limosa; conditions: 1000 g ai/ha, scale 0 to 100 (0 no effect, 100 complete control)
# Method in brief: (§4)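 Visual control ratings, 0–100 versus untreated controls, taken after 13 to 15 days in the greenhouse. Blackgrass received a postemergence spray at the 1- to 4-leaf stage (2–18 cm); ducksalad, umbrella sedge and barnyardgrass were flooded-paddy treated at 2 leaves.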
# rice [6] = experiment: Test B flooded paddy test; type: in vivo, Oryza sativa; conditions: 1000 g ai/ha, scale 0 to 100 (0 no effect, 100 complete control)
# Method in brief: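 After treating 2-leaf paddy plants or 2–18 cm postemergence plants (1 to 4 leaves) with formulated chemical, researchers kept them in a greenhouse for 13–15 days. Effects were judged visually versus controls: 0 indicates none, 100 total control.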
# barnyardgrass [7] = experiment: Test B flooded paddy test; type: in vivo, Echinochloa crus-galli; conditions: 1000 g ai/ha, scale 0 to 100 (0 no effect, 100 complete control)
# Method in brief: as §4
# [8] = test system: smallflower umbrella sedge; experiment: Test C flooded paddy test; type: in vivo, Cyperus difformis
# giant foxtail = experiment: Test B pre-/postemergence herbicide test; type: in vivo, Setaria faberi; conditions: for Foxtail, Giant plant response rating: postemergence, scale 0 (no effect) to 100 (complete control)
# Method in brief: as §3
# blackgrass = experiment: Test B postemergence herbicide test; type: in vivo, Alopecurus myosuroides; conditions: postemergence, visual rating, scale 0 (no effect) to 100 (complete control)
# Method in brief: as §4
# Surinam grass = experiment: Test B pre-/postemergence herbicide test; type: in vivo, Urochloa decumbens; conditions: for Surinam Grass plant response rating: postemergence, scale 0 (no effect) to 100 (complete control)
# Method in brief: as §3
# cocklebur = experiment: Test B pre-/postemergence herbicide test; type: in vivo, Xanthium strumarium; conditions: for Cocklebur plant response rating: postemergence, scale 0 (no effect) to 100 (complete control)
# Method in brief: as §2
# large crabgrass = experiment: Test B pre-/postemergence herbicide test; type: in vivo, Digitaria sanguinalis; conditions: for Crabgrass, Large plant response rating: postemergence, scale 0 (no effect) to 100 (complete control)
# Method in brief: as §3
# corn = experiment: Test B pre-/postemergence herbicide test; type: in vivo, Zea mays; conditions: for Corn plant response rating: postemergence, scale 0 (no effect) to 100 (complete control)
# Method in brief: as §3
# rice [9] = experiment: Test C flooded paddy test; type: in vivo, Oryza sativa
# Method in brief: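 Injury scored visually against controls on a 0 (no effect) to 100 (complete control) scale, 12 to 14 days after treatment in greenhouse. Flooded paddy plants treated at 2-leaf stage; postemergence plants at 1- to 4-leaf stage, 2 to 18 cm tall.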
# [10] = test system: small flower umbrella sedge; experiment: Test B flooded paddy test; type: in vivo, Cyperus difformis; conditions: 1000 g ai/ha, scale 0 to 100 (0 no effect, 100 complete control)
# Method in brief: as §4
# lambsquarters = experiment: Test B pre-/postemergence herbicide test; type: in vivo, Chenopodium album; conditions: for Lambsquarters plant response rating: postemergence, scale 0 (no effect) to 100 (complete control)
# Method in brief: as §3
# [11] = 62 g ai/ha, scale 0 to 100 (0 no effect, 100 complete control)
# [12] = 125 g ai/ha, scale 0 to 100 (0 no effect, 100 complete control)
# [13] = 250 g ai/ha, scale of 0 to 100, 0 is no effect, 100 is complete control
# [14] = 500 g ai/ha, visual rating after 12 to 14 days, scale 0 to 100 (0 no effect, 100 complete control)
# [15] = 125 g ai/ha, 0 = no effect, 100 = complete control, preemergence
# [16] = 500 g ai/ha, visual rating, 0 = no effect, 100 = complete control, preemergence
smiles,measurement,setting,value
CCc1cn(C(C)(C)C)nc1C(=O)Nc1cc(C(=O)N(C)C)ccn1 [Compound 232],"Oat, Wild plant response rating",wild oat; 125 g ai/ha,0
same,"Oat, Wild plant response rating",wild oat; 500 g ai/ha,0
same,Barnyardgrass plant response rating,barnyardgrass [1]; [11],0
same,Barnyardgrass plant response rating,barnyardgrass [1]; [12],0
same,Barnyardgrass plant response rating,barnyardgrass [1]; [13],0
same,"Plant response rating, Barnyardgrass",barnyardgrass [1]; [14],15
same,Morningglory plant response rating (0 to 100 scale),morningglory; [15],10
same,"Plant response rating, Morningglory",morningglory; [16],20
same,Morningglory plant response rating,"morningglory; 125 g ai/ha, visual rating",30
same,Morningglory plant response rating,"morningglory; 500 g ai/ha, visual rating",70
same,Velvetleaf plant response rating (0 to 100 scale),velvetleaf; [15],20
same,"Plant response rating, Velvetleaf",velvetleaf; [16],40
same,Velvetleaf plant response rating,"velvetleaf; 125 g ai/ha, visual rating",30
same,Velvetleaf plant response rating,"velvetleaf; 500 g ai/ha, visual rating",40
same,Wheat plant response rating,wheat; 125 g ai/ha,0
same,Wheat plant response rating,wheat; 500 g ai/ha,0
same,Rice plant response rating (0 to 100 scale),rice [2]; 125 g ai/ha,10
same,"Plant response rating, Rice","rice [2]; 500 g ai/ha, visual rating",50
same,Ducksalad plant response rating,ducksalad [3]; [11],0
same,Ducksalad plant response rating,ducksalad [3]; [12],0
same,Ducksalad plant response rating,ducksalad [3]; [13],30
same,"Plant response rating, Ducksalad",ducksalad [3]; [14],80
same,Barnyardgrass plant response rating (0 to 100 scale),barnyardgrass [4]; 125 g ai/ha,20
same,"Plant response rating, Barnyardgrass","barnyardgrass [4]; 500 g ai/ha, visual rating",60
same,Pigweed plant response rating (0 to 100 scale),pigweed; [15],90
same,"Plant response rating, Pigweed",pigweed; [16],90
same,Pigweed plant response rating,"pigweed; postemergence, 500 g ai/ha, visual rating, scale 0 (no effect) to 100 (complete control)",40
same,Ducksalad plant response rating,ducksalad [5],80
same,Rice plant response rating,rice [6],50
same,Barnyardgrass plant response rating,barnyardgrass [7],40
same,"Sedge, Umbrella plant response rating",[8]; [11],0
same,"Sedge, Umbrella plant response rating",[8]; [12],35
same,"Sedge, Umbrella plant response rating",[8]; [13],55
same,"Plant response rating, Sedge, Umbrella",[8]; [14],85
same,"Foxtail, Giant plant response rating (0 to 100 scale)",giant foxtail; [15],0
same,"Plant response rating, Foxtail, Giant",giant foxtail; [16],30
same,"Foxtail, Giant plant response rating","giant foxtail; 125 g ai/ha, visual rating",10
same,"Foxtail, Giant plant response rating","giant foxtail; 500 g ai/ha, visual rating",30
same,Blackgrass plant response rating,blackgrass; 125 g ai/ha,0
same,Blackgrass plant response rating,blackgrass; 500 g ai/ha,0
same,Surinam Grass plant response rating (0 to 100 scale),Surinam grass; [15],0
same,"Plant response rating, Surinam Grass",Surinam grass; [16],30
same,Surinam Grass plant response rating,"Surinam grass; 125 g ai/ha, visual rating",10
same,Surinam Grass plant response rating,"Surinam grass; 500 g ai/ha, visual rating",20
same,Cocklebur plant response rating (0 to 100 scale),cocklebur; [15],0
same,"Plant response rating, Cocklebur",cocklebur; [16],0
same,Cocklebur plant response rating,"cocklebur; 125 g ai/ha, visual rating",10
same,Cocklebur plant response rating,"cocklebur; 500 g ai/ha, visual rating",30
same,"Crabgrass, Large plant response rating (0 to 100 scale)",large crabgrass; [15],60
same,"Plant response rating, Crabgrass, Large",large crabgrass; [16],100
same,"Crabgrass, Large plant response rating","large crabgrass; 125 g ai/ha, visual rating",10
same,"Crabgrass, Large plant response rating","large crabgrass; 500 g ai/ha, visual rating",20
same,Corn plant response rating (0 to 100 scale),corn; [15],0
same,"Plant response rating, Corn",corn; [16],0
same,Corn plant response rating,"corn; 125 g ai/ha, visual rating",10
same,Corn plant response rating,"corn; 500 g ai/ha, visual rating",20
same,Rice plant response rating,rice [9]; [11],0
same,Rice plant response rating,rice [9]; [12],20
same,Rice plant response rating,rice [9]; [13],35
same,"Plant response rating, Rice",rice [9]; [14],60
same,"Sedge, Umbrella plant response rating",[10],90
same,Lambsquarters plant response rating (0 to 100 scale),lambsquarters; [15],80
same,"Plant response rating, Lambsquarters",lambsquarters; [16],90
same,Lambsquarters plant response rating,"lambsquarters; 125 g ai/ha, visual rating",50
same,Lambsquarters plant response rating,"lambsquarters; 500 g ai/ha, visual rating",60
